≈ marks a conversion by molar mass, not a printed value. Where two headings read alike, the source gives them in different places.
What was measured:
Yarrowia lipolytica = assay: MIC100 microdilution assay against Yarrowia lipolytica; type: cell-based
Experimental: In previous research we found a good correlation between MIC values against Yarrowia lipolytica and pathogenic Candida species.
Determination of MICs against Yarrowia lipolytica (DSMZ, Braunschweig, Germany) was carried out according to lit. Yarrowia lipolytica was cultivated in AC‐agar (Sigma Aldrich). Concentration of yeast cells was determined by photometer and adjusted to a turbidity of 0.5 according to McFarland standard at 600 nm. All substances were dissolved in DMSO or methanol.
Determination of MICs (minimal inhibitory concentration) against Yarrowia lipolytica was carried out according to Lit.^[13] Concentration of yeast cells was determined by photometer and adjusted to a turbitity of 0.5 according to McFarland Standard.

R. arrhizus (oryzae) = assay: MIC90 growth inhibition of molds (EUCAST), R. arrhizus (oryzae); type: cell-based; conditions: Rhizopus arrhizus
Experimental: (§1) Determination of MICs (minimal inhibitory concentration) against Candida species was carried out according to the European Committee of Antifungal Susceptibility Testing. Concentration of yeast cells was determined by photometer and adjusted to a turbidity of 0.5 according to McFarland standard. MIC90 was determined by microdilution plate reader (Sunrise Tecan) at 450 nm, after 24 h incubation at 37°C. MIC90 was defined as the minimal concentration of chemical causing 90% growth inhibition, respectively. Growth inhibition of molds was determined by eye and microscopically, following EUCAST guidelines. All substances were dissolved in DMSO and diluted in RPMI 1640 medium, containing 2% glucose. All assays were carried out twice.

C. albicans = assay: MIC90 microdilution (EUCAST), C. albicans; type: cell-based; conditions: Candida albicans, 24 h
Experimental: as §1

C. glabrata = assay: MIC90 microdilution (EUCAST), C. glabrata; type: cell-based; conditions: Nakaseomyces glabratus, 24 h
Experimental: as §1

A. fumigatus (R7) = assay: MIC90 growth inhibition of molds (EUCAST), A. fumigatus (R7); type: cell-based; conditions: Aspergillus fumigatus
Experimental: as §1

molds = assay: Growth inhibition of molds; type: cell-based; conditions: against the molds
Experimental: as §1

[1] = MTT cytotoxicity assay against HL 60 cells; type: cell-based; conditions: human, HL-60 cells (human leukemia cells); HL 60 cell line; MTT assay; read-out: IC50 cytotoxicity
Experimental: The cytotoxicity of the active compounds was checked in an MTT assay against human HL 60 cells. […] Although, this corresponds to the MIC range that would be needed in treatment, the values are within the range observed for commonly used antimycotics such as amorolfine and posaconazole. All active compounds were evaluated for their biopharmaceutical behavior and drug‐likeness using the online program SwissADME [26] and should show oral bioavailability according to the Lipinski rules of five.
HL‐60 cells (human leukemia cells, DSM No. ACC3) were obtained from DSMZ (German Collection of Microorganisms and Cell Cultures, Braunschweig, Germany) and cultivated in RPMI 1640 medium with 10% fetal bovine serum (FBS), both from PAA Laboratories, Cölbe, Germany) without the addition of antibiotics at 37°C in a humidified atmosphere containing 5% CO2. The assay was performed according to lit.

A. fumigatus (R16) = assay: MIC90 growth inhibition of molds (EUCAST), A. fumigatus (R16); type: cell-based; conditions: Aspergillus fumigatus
Experimental: as §1

R. microsporus = assay: MIC90 growth inhibition of molds (EUCAST), R. microsporus; type: cell-based; conditions: Rhizopus microsporus
Experimental: as §1

A. fumigatus (A65) = assay: MIC90 growth inhibition of molds (EUCAST), A. fumigatus (A65); type: cell-based; conditions: Aspergillus fumigatus, RPMI 1640, 2% glucose, read by eye and microscopically
Experimental: Determination of MICs (minimal inhibitory concentration) against Candida species was carried out according to the European Committee of Antifungal Susceptibility Testing. Concentration of yeast cells was determined by photometer and adjusted to a turbidity of 0.5 according to McFarland standard. […] Growth inhibition of molds was determined by eye and microscopically, following EUCAST guidelines. […] All assays were carried out twice.

C. krusei = assay: MIC90 microdilution (EUCAST), C. krusei; type: cell-based; conditions: Pichia kudriavzevii, 24 h
Experimental: as §1

Candida species = conditions: reported values; cited from earlier work
Candida isolates = assay: MIC90 against Candida isolates; type: cell-based; conditions: span over the Candida isolates tested
Experimental: as §1

[2] = 48 h, read-out: Biological Activity MIC Yarrowia lipolytica
[3] = read-out: MIC100 (molar value in brackets)

SMILES | MIC (Yarrowia lipolytica; [2]) [µg/mL] | MIC (Yarrowia lipolytica; 48 h, read-out: MIC100) [µg/mL] | MIC (Yarrowia lipolytica; [3]) [µM] | MIC90 (R. arrhizus (oryzae)) [µg/mL] | MIC90 (C. albicans) [µg/mL] | MIC90 (C. glabrata) [µg/mL] | MIC90 (A. fumigatus (R7)) [µg/mL] | growth inhibition at concentrations (molds) (molds) [µg/mL] | IC50 [1] [µg/mL] | MIC90 (A. fumigatus (R16)) [µg/mL] | MIC90 (R. microsporus) [µg/mL] | MIC90 (A. fumigatus (A65)) [µg/mL] | MIC90 (C. krusei) [µg/mL] | MIC values against Candida species (Candida species) [µg/mL] | MIC90 (Candida isolates) [µg/mL]
CC(C)=CCCC(C)CCN1CCC(N2CCC3CCCCC3C2)CC1 (racemic) [6k, (±)‐2‐[1‐(3,7‐Dimethyloct‐6‐en‐1‐yl)‐piperidin‐4‐yl]‐decahydroisoquinoline] | 6.3 | 6.3 | 17.5 | 16 (≈ 44.4 µM) | 16 (≈ 44.4 µM) | > 32 | > 32 | 16 to 32 | 17 (≈ 47.1 µM) | > 32 | > 32 | > 32 | 8 (≈ 22.2 µM) | – | –
CC(C)=CCC/C(C)=C/CN1CCC(N2CCC3CCCCC3C2)CC1 (stereo not shown) [6l, 2‐{1‐[(2E)‐3,7‐Dimethylocta‐2,6‐dien‐1‐yl]piperidin‐4‐yl}‐decahydroisoquinoline] | 12.5 | 12.5 | 34.9 | 16 (≈ 44.6 µM) | 32 (≈ 89.2 µM) | > 32 | > 32 | 16 to 32 | 26 (≈ 72.5 µM) | > 32 | > 32 | > 32 | 4 (≈ 11.2 µM) | – | –
CC(Cc1ccc(C(C)(C)C)cc1)CN1CCCCC1 (stereo not shown) [fenpropidin] | – | – | – | – | – | – | – | – | – | – | – | – | – | 0.25 to 1 | –
CC(Cc1ccc(C(C)(C)C)cc1)CN1C[C@@H](C)O[C@@H](C)C1 (stereo partly shown) [fenpropimorph] | – | – | – | – | – | – | – | – | – | – | – | – | – | 0.5 to 2 | –
COc1cc2c(cc1OC)CN(C1CCN(CCC(C)CCC=C(C)C)CC1)CC2 (racemic) [6j, (±)‐2‐[1‐(3,7‐Dimethyloct‐6‐en‐1‐yl)piperidin‐4‐yl]‐6,7‐dimethoxy‐1,2,3,4‐tetrahydroisoquinoline] | 3.1 | 3.1 | 7.5 | > 32 | > 32 | > 32 | > 32 | – | 75 (≈ 181 µM) | > 32 | > 32 | > 32 | 32 (≈ 77.2 µM) | – | –
CCCCCCCCCCCCN1CCC(N2CCC3CCCCC3C2)CC1 (racemic) [6i, (±)‐2‐(1‐Dodecylpiperidin‐4‐yl)‐decahydroisoquinoline] | 1.6 | 1.6 | 4.1 | > 32 | – | 16 (≈ 41 µM) | 32 (≈ 81.9 µM) | 16 to 32 | 23 (≈ 58.9 µM) | 32 (≈ 81.9 µM) | > 32 | 32 (≈ 81.9 µM) | – | – | 2 to 16 (≈ 5.12 to 41 µM)
CCCCCCCCCCCCN1CCC(N2CCc3cc(OC)c(OC)cc3C2)CC1 [6f, 2‐(1‐Dodecylpiperidin‐4‐yl)‐6,7‐dimethoxy‐1,2,3,4‐tetrahydroisoquinoline] | 3.1 | 3.1 | 7 | > 32 | 4 (≈ 8.99 µM) | – | > 32 | – | 6 (≈ 13.5 µM) | > 32 | > 32 | > 32 | 2 (≈ 4.5 µM) | – | 2 to 16 (≈ 4.5 to 36 µM)
